For one assay, the target named is T1, human S1P1 receptor (Homo sapiens, UniProt P21453).
T1 construct: expressed in transfected cells; membranes used
The assay is described as follows: GTP γ35S binding assay for S1P1 activity. It is filed as biochemical. As to conditions: for activation at 5 µM: S1P1 receptor GTPγ^35S, read-out: % STIMULATION @ 5 μM; for EC50: S1P1 receptor, membranes, compounds 0.08 to 5,000 nM, read-out: GTPγ^35S EC50. The procedure: Novel compounds were synthesized and tested for S1P1 activity using the GTP γ^35S binding assay. These compounds may be assessed for their ability to activate or block activation of the human S1P1 receptor in cells stably expressing the S1P1 receptor. GTP γ^35S binding was measured in the medium containing (mM) HEPES 25, pH 7.4, MgCl2 10, NaCl 100, dithitothreitol 0.5, digitonin 0.003%, 0.2 nM GTP γ^35S, and 5 μg membrane protein in a volume of 150 μl. Test compounds were included in the concentration range from 0.08 to 5,000 nM unless indicated otherwise. Membranes were incubated with 100 μM 5′-adenylylimmidodiphosphate for 30 min, and subsequently with 10 μM GDP for 10 min on ice. Drug solutions and membrane were mixed, and then reactions were initiated by adding GTP γ^35S and continued for 30 min at 25° C. Reaction mixtures were filtered over Whatman GF/B filters under vacuum, and washed three times with 3 mL of ice-cold buffer (HEPES 25, pH7.4, MgCl2 10 and NaCl 100). Filters were dried and mixed with scintillant, and counted for ^35S activity using a […]. Agonist-induced GTP γ^35S binding was obtained by subtracting that in the absence of agonist. Binding data were analyzed using a non-linear regression method. In case of antagonist assay, the reaction mixture contained 10 nM S1P in the presence of test antagonist at concentrations ranging from 0.08 to 5000 nM.
Activity potency: S1P1 receptor from GTP γ^35S: nM, (EC50)
On the technique in general: Binding of GTPγS marks nucleotide exchange on a G protein.

The next assay has as its system lymphocytes in blood. The assay is described as follows: Lymphopenia assay in mice (in vivo blood lymphocyte depletion). As to conditions: female C57BL6 mice, 10 mg/Kg subcutaneous. The procedure:
Test drugs are prepared in a solution containing 3% (w/v) 2-hydroxy propyl β-cyclodextrin (HPBCD) and 1% DMSO to a final concentration of 1 mg/ml, and subcutaneously injected to female C57BL6 mice (CHARLES RIVERS) weighing 20-25 g at the dose of 10 mg/Kg. Blood samples are obtained by puncturing the submandibular skin with a Goldenrod animal lancet at 5, 24, 48, 72, and 96 hrs post drug application. Blood is collected into microvettes (SARSTEDT) containing EDTA tripotassium salt. Lymphocytes in blood samples are counted using a HEMAVET Multispecies Hematology System, HEMAVET HV950FS (Drew Scientific Inc.). (Hale, J. et al Bioorg. & Med. Chem. Lett. 14 (2004) 3351).
A lymphopenia assay in mice; as previously described, was employed to measure the in vivo blood lymphocyte depletion after dosing with: • (3-{[5-(4-Hexyl-phenyl)-6-thiophen-2-yl-pyridin-2-ylmethyl]-amino}-propyl)-phosphonic acid, Compound 2 (FIG. 1); • (3-{[6-(5-Fluoro-thiophen-2-yl)-5-(4-hexyl-phenyl)-pyridin-2-ylmethyl]-amino}-propyl)-phosphonic acid, Compound 3 (FIG. 2); • (3-{[5-(4-Hexyl-3-propyl-phenyl)-6-thiophen-2-yl-pyridin-2-ylmethyl]-amino}-propyl)-phosphonic acid, Compound 4 (FIG. 3); • [3-({5-[4-(3-Phenyl-propyl)-phenyl]-6-thiophen-2-yl-pyridin-2-ylmethyl}-amino)-propyl]-phosphonic acid, Compound 5 (FIG. 4); • (3-{[5-(4-Hexyl-phenyl)-6-thiophen-3-yl-pyridin-2-ylmethyl]-amino}-propyl)-phosphonic acid, Compound 6 (FIG. 5); • (3-{[5-(4-Hexyl-phenyl)-6-oxazol-4-yl-pyridin-2-ylmethyl]-amino}-propyl)-phosphonic acid, Compound 7 (FIG. 6); • (3-{[6-Furan-2-yl-5-(4-hexyl-phenyl)-pyridin-2-ylmethyl]-amino}-propyl)-phosphonic acid, Compound 9 (FIG. 7); • [3-({6-Phenyl-5-[4-(3-phenyl-propyl)-phenyl]-pyridin-2-ylmethyl}-amino)-propyl]-phosphonic acid, Compound 14 (FIGS. 8) and • (3-{[5-(4-Hexyl-3-propyl-phenyl)-6-phenyl-pyridin-2-ylmethyl]-amino}-propyl)-phosphonic acid, Compound 16 (FIG. 9).
These S1P agonist (or modulator) is useful for S1P-related diseases, and exemplified by the lymphopenia in vivo response. In general, test drugs Compound 3 and 16 were prepared in a solution containing 3% (w/v) 2-hydroxy propyl β-cyclodextrin (HPBCD) and 1% DMSO to a final concentration of 1 mg/ml, and subcutaneously injected to female C57BL6 mice (CHARLES RIVERS) weighing 20-25 g at the dose of 10 mg/Kg. Blood samples were obtained by puncturing the submandibular skin with a Goldenrod animal lancet at 5, 24, 48, and 72 hrs post drug application. Blood was collected into microvettes (SARSTEDT) containing EDTA tripotassium salt. Lymphocytes in blood samples were counted using a HEMAVET Multispecies Hematology System, HEMAVET HV950FS (Drew Scientific Inc.). Results are shown in the following figures below that depict lowered lymphocyte count after 5 hours (<1 number of lymphocytes 10^3/μL blood).

T1 sequence (P21453 whole entry): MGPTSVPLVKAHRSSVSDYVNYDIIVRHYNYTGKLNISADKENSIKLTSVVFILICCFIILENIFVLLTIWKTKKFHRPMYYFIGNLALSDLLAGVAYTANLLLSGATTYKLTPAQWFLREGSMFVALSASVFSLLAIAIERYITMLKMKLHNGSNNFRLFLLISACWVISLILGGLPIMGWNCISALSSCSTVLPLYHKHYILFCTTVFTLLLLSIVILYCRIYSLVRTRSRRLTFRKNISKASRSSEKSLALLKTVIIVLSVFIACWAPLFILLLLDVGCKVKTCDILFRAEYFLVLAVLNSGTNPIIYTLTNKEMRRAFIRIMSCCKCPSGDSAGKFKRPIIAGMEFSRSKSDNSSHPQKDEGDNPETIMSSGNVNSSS

In general, EC50 refers to the concentration that produces a half-maximal response. As for `CCCCCCc1ccc(-c2ccc(CNCCCP(=O)(O)O)cc2-c2ccccc2)nc1` [Compound 1, (3-{[6-(5-Hexyl-pyridin-2-yl)-biphenyl-3-ylmethyl]-amino}-propyl)-phosphonic acid], on human S1P1 receptor, the activation at 5 µM came to 79.4% and the concentration for a half-maximal effect (EC50) worked out at 317 nM.

With `CCCCCCc1ccc(-c2ccc(CNCCCP(=O)(O)O)nc2-c2cccs2)cc1` [Compound 2, (3-{[5-(4-Hexyl-phenyl)-6-thiophen-2-yl-pyridin-2-ylmethyl]-amino}-propyl)-phosphonic acid], in the assay with lymphocytes in blood (after 24 h of drug application), the “number of lymphocytes found in the blood” value is on record as “reduced”. For the same compound, on human S1P1 receptor, the activation at 5 µM came to 68.1% and the EC50 worked out at 5.26 nM.

Take `CCCCCCc1ccc(-c2ccc(CNCCCP(=O)(O)O)nc2-c2ccc(F)s2)cc1` [Compound 3, (3-{[6-(5-Fluoro-thiophen-2-yl)-5-(4-hexyl-phenyl)-pyridin-2-ylmethyl]-amino}-propyl)-phosphonic acid]: the “number of lymphocytes found in the blood” value with lymphocytes in blood (after 72 h of drug application) is reported as “reduced”. In addition, at human S1P1 receptor, the activation at 5 µM stood at 111% and the EC50 stood at 25.1 nM.

Turning to `CCCCCCc1ccc(-c2ccc(CNCCCP(=O)(O)O)nc2-c2cccs2)cc1CCC` [Compound 4, (3-{[5-(4-Hexyl-3-propyl-phenyl)-6-thiophen-2-yl-pyridin-2-ylmethyl]-amino}-propyl)-phosphonic acid], the “number of lymphocytes found in the blood” value in the assay on lymphocytes in blood (after 72 h of drug application) is given as “reduced”. Besides, at human S1P1 receptor, the activation at 5 µM amounted to 79.1% and the EC50 was 7.72 nM.

On to `O=P(O)(O)CCCNCc1ccc(-c2ccc(CCCc3ccccc3)cc2)c(-c2cccs2)n1` [Compound 5, [3-({5-[4-(3-Phenyl-propyl)-phenyl]-6-thiophen-2-yl-pyridin-2-ylmethyl}-amino)-propyl]-phosphonic acid], for which the “number of lymphocytes found in the blood” value in the assay on lymphocytes in blood (after 48 h of drug application) is reported as “reduced”. Also, on human S1P1 receptor, the activation at 5 µM came out at 91.1% and the EC50 was found to be 2.36 nM.

On to `CCCCCCc1ccc(-c2ccc(CNCCCP(=O)(O)O)nc2-c2ccsc2)cc1` [Compound 6, (3-{[5-(4-Hexyl-phenyl)-6-thiophen-3-yl-pyridin-2-ylmethyl]-amino}-propyl)-phosphonic acid], for which, in the assay with lymphocytes in blood (after 48 h of drug application), the “number of lymphocytes found in the blood” value is on record as “reduced”. For the same compound, at human S1P1 receptor, the activation at 5 µM amounted to 76.9% and the EC50 was 9.19 nM.

For the compound `CCCCCCc1ccc(-c2ccc(CNCCCP(=O)(O)O)nc2-c2cocn2)cc1` [Compound 7, (3-{[5-(4-Hexyl-phenyl)-6-oxazol-4-yl-pyridin-2-ylmethyl]-amino}-propyl)-phosphonic acid], the “number of lymphocytes found in the blood” value in the assay on lymphocytes in blood (after 24 h of drug application) is on record as “reduced”. At human S1P1 receptor, the activation at 5 µM was 86.1% and the EC50 worked out at 0.87 nM.

`CCCCCCc1ccc(-c2ccc(CNCCCP(=O)(O)O)nc2-c2nccs2)cc1` [Compound 8, (3-{[5-(4-Hexyl-phenyl)-6-thiazol-2-yl-pyridin-2-ylmethyl]-amino}-propyl)-phosphonic acid]: on human S1P1 receptor, the activation at 5 µM was 89.3% and the EC50 was 6.52 nM.

Take `CCCCCCc1ccc(-c2ccc(CNCCCP(=O)(O)O)nc2-c2ccco2)cc1` [Compound 9, (3-{[6-Furan-2-yl-5-(4-hexyl-phenyl)-pyridin-2-ylmethyl]-amino}-propyl)-phosphonic acid]: in the assay with lymphocytes in blood (after 48 h of drug application), the “number of lymphocytes found in the blood” value was “reduced”. For the same compound, at human S1P1 receptor, the activation at 5 µM amounted to 88.6% and the EC50 was 0.44 nM.

Consider `O=P(O)(O)CCCNCc1ccc(-c2ccc(CCC(F)(F)C(F)(F)C(F)(F)C(F)(F)F)cc2)c(-c2ccccc2)c1` [Compound 11, (3-{[4-(3,3,4,4,5,5,6,6,6-Nonafluoro-hexyl)-[1,1′;2′,1″]terphenyl-4′-ylmethyl]-amino}-propyl)-phosphonic acid], for which, at human S1P1 receptor, the activation at 5 µM came to 71.8% and the EC50 was determined as 416 nM.

With `O=P(O)(O)CCCNCc1ccc(-c2ccc(CCCc3ccccc3)cc2)c(-c2ccccc2)c1` [Compound 12, (3-{[4-(3-Phenyl-propyl)-[1,1′;2′,1″]terphenyl-4′-ylmethyl]-amino}-propyl)-phosphonic acid], at human S1P1 receptor, the activation at 5 µM was found to be 64% and the EC50 came out at 625 nM.

With `O=P(O)(O)CCCNCc1ccc(-c2ccc(CCCc3ccccc3)cc2)c(-c2cccc(Cl)c2)n1` [Compound 13, [3-({6-(3-Chloro-phenyl)-5-[4-(3-phenyl-propyl)-phenyl]-pyridin-2-ylmethyl}-amino)-propyl]-phosphonic acid], at human S1P1 receptor, the activation at 5 µM amounted to 64% and the EC50 came out at 2430 nM.

As for `O=P(O)(O)CCCNCc1ccc(-c2ccc(CCCc3ccccc3)cc2)c(-c2ccccc2)n1` [Compound 14, [3-({6-Phenyl-5-[4-(3-phenyl-propyl)-phenyl]-pyridin-2-ylmethyl}-amino)-propyl]-phosphonic acid], the “number of lymphocytes found in the blood” value with lymphocytes in blood (after 5 h of drug application) is “reduced”. For the same compound, at human S1P1 receptor, the activation at 5 µM was 86.6% and the EC50 was 93.8 nM.

Regarding `CCCCCOc1ccc(-c2ccc(CNCCCP(=O)(O)O)nc2-c2cccc(F)c2)cc1` [Compound 17, (3-{[6-(3-Fluoro-phenyl)-5-(4-pentyloxy-phenyl)-pyridin-2-ylmethyl]-amino}-propyl)-phosphonic acid], at human S1P1 receptor, the activation at 5 µM is 83.9% and the EC50 was found to be 2200 nM.

In the case of `CCCCCOc1ccc(-c2ccc(CNCCCP(=O)(O)O)nc2-c2ccc(F)cc2)cc1` [Compound 18, (3-{[6-(4-Fluoro-phenyl)-5-(4-pentyloxy-phenyl)-pyridin-2-ylmethyl]-amino}-propyl)-phosphonic acid], at human S1P1 receptor, the activation at 5 µM is 104% and the EC50 worked out at 472 nM.

Regarding `CCCCCOc1ccc(-c2ccc(CNCCCP(=O)(O)O)nc2-c2ccccc2)cc1` [Compound 19, (3-{[5-(4-Pentyloxy-phenyl)-6-phenyl-pyridin-2-ylmethyl]-amino}-propyl)-phosphonic acid], on human S1P1 receptor, the activation at 5 µM was found to be 95.5% and the EC50 is 358 nM.

Consider `CCCCCCc1ccc(-c2ccc(CNCCCP(=O)(O)O)cc2-c2ccccc2)cn1` [Compound 20, (3-{[6-(6-Hexyl-pyridin-3-yl)-biphenyl-3-ylmethyl]-amino}-propyl)-phosphonic acid], for which, at human S1P1 receptor, the activation at 5 µM stood at 94.7% and the EC50 stood at 833 nM.

For the compound `CCCCCCCCc1ccc(-c2ccc(CNCCCP(=O)(O)O)cc2-c2ccccc2)cn1` [Compound 22, (3-{[6-(6-Octyl-pyridin-3-yl)-biphenyl-3-ylmethyl]-amino}-propyl)-phosphonic acid], on human S1P1 receptor, the activation at 5 µM was found to be 89.7% and the EC50 worked out at 771 nM.

In the case of `CCCCCCc1ccc(-c2ccc(CNCCCP(=O)(O)O)nc2-c2ccccc2)cc1` [Compound 27, (3-{[5-(4-Hexyl-phenyl)-6-phenyl-pyridin-2-ylmethyl]-amino}-propyl)-phosphonic acid], on human S1P1 receptor, the activation at 5 µM stood at 112% and the EC50 was found to be 252 nM.

The values above are taken from patent publication US8513220B2, “Aromatic compounds having sphingosine-1-phosphonate (S1P) receptor activity” (Allergan, Inc., priority 2010, dated 2013).
